Source: patent US7910612B2, “4-oxy-N-[1,3,4]-thiadiazol-2-yl-benzene sulfonamides, pharmaceutical compositions and methods for their therapeutic use” (Sanofi-Aventis, priority 2005, dated 2011)

These compounds were tested against T1, human PPARdelta (Homo sapiens, UniProt Q03181) (assay: cellular PPARdelta assay (stably transfected HEK luciferase reporter cell line)).
T1 construct: amino acids S139-Y441; expressed in transfected cells; host or cells: HEK (human embryo kidney) cells, stably transfected, pcDNA3 vector
T1 sequence (Q03181 139-441): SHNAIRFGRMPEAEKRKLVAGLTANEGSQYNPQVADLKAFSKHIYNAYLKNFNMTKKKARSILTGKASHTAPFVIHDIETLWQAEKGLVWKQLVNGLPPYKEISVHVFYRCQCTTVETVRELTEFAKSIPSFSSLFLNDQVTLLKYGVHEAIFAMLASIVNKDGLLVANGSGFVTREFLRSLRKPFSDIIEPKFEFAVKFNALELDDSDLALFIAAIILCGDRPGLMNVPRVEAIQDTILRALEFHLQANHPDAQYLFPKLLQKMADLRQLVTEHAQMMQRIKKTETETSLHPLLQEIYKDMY
Type: cell-based
Method: The potency of substances which bind to human PPARdelta and activate it in an agonistic manner is analyzed using a stably transfected HEK cell line (HEK=human embryo kidney) which is referred to here as PPARdelta reporter cell line. In analogy to the assay described for PPARalpha, the PPARdelta reporter cell line also contains two genetic elements, a luciferase reporter element (pdeltaM-GAL4-Luc-Zeo) and a PPARdelta fusion protein (GR-GAL4-humanPPARdelta-LBD) which mediates expression of the luciferase reporter element depending on a PPARdelta ligand. The stably and constitutively expressed fusion protein GR-GAL4-humanPPARdelta-LBD binds in the cell nucleus of the PPARdelta reporter cell line via the GAL4 protein portion to the GAL4 DNA binding motifs 5′-upstream of the luciferase reporter element which is stably integrated in the genome of the cell line. There is only little expression of the luciferase reporter gene in the absence of a PPARdelta ligand if fatty acid-depleted fetal calf serum (cs-FCS) is used in the assay. PPARdelta ligands bind and activate the PPARdelta fusion protein and thereby stimulate expression of the luciferase reporter gene. The luciferase which is formed can be detected by means of chemiluminescence via an appropriate substrate.
The production of the stable PPARdelta reporter cell line is based on a stable HEK-cell clone which was stably transfected with a luciferase reporter element. This step was already described above in the section “construction of the PPARalpha reporter cell line”. In a second step, the PPARdelta fusion protein (GR-GAL4-humanPPARdelta-LBD was stably introduced into this cell clone. For this purpose, the cDNA coding for the N-terminal 76 amino acids of the glucocorticoid receptor (Accession #P04150) was linked to the cDNA section coding for amino acids 1-147 of the yeast transcription factor GAL4 (Accession #P04386). The cDNA of the ligand-binding domain of the human PPARdelta receptor (amino acids S139-Y441; Accession #L07592) was cloned in at the 3′-end of this GR-GAL4 construct. The fusion construct prepared in this way (GR-GAL4-humanPPARdelta-LBD) was recloned into the plasmid pcDNA3 (Invitrogen) in order to enable constitutive expression by the cytomegalovirus promoter. This plasmid was linearized with a restriction endonuclease and stably transfected into the previously described cell clone containing the luciferase reporter element. The resulting PPARdelta reporter cell line which contains a luciferase reporter element and constitutively expresses the PPARdelta fusion protein (GR-GAL4-human PPARdelta-LBD) was isolated by selection with zeocin (0.5 mg/ml) and G418 (0.5 mg/ml).
The activity of PPARdelta agonists is determined in a 3-day assay in exact analogy to the procedure already described for the PPARalpha reporter cell line except that the PPARdelta reporter cell line and a specific PPARdelta agonist was used as a standard to control test efficacy. […] Compounds of the invention of the formula I activate the PPARdelta receptor.

In order of falling EC50:
1. CC(C)c1nnc(NS(=O)(=O)c2ccc(OCc3ccc(Oc4ccc(C(F)(F)F)cc4)cc3)cc2)s1 [Example 4, N-(5-Isopropyl-[1,3,4]thiadiazol-2-yl)-4-[4-(4-trifluoromethyl-phenoxy)-benzyloxy]-benzenesulfonamide]  1130 nM
2. CCc1oc(-c2cccc(C(F)(F)F)c2)nc1COc1ccc(S(=O)(=O)Nc2nnc(C(C)C)s2)cc1 [Example 14, 4-[5-Ethyl-2-(3-trifluoromethyl-phenyl)-oxazol-4-ylmethoxy]-N-(5-isopropyl-[1,3,4]thiadiazol-2-yl)-benzenesulfonamide]  670 nM
3. COc1ccc(-c2nc(COc3ccc(S(=O)(=O)Nc4nnc(C(C)C)s4)cc3)co2)cc1 [Example 13, N-(5-Isopropyl-[1,3,4]thiadiazol-2-yl)-4-[2-(4-methoxy-phenyl)-oxazol-4-ylmethoxy]-benzenesulfonamide]  650 nM
4. COc1ccc2c(COc3ccc(S(=O)(=O)Nc4nnc(C(C)C)s4)cc3)coc2c1 [Example 3, N-(5-Isopropyl-[1,3,4]thiadiazol-2-yl)-4-(6-methoxy-benzofuran-3-ylmethoxy)-benzenesulfonamide]  480 nM
5. Cc1nc(-c2ccc(C(F)(F)F)cc2)sc1COc1ccc(S(=O)(=O)Nc2nnc(C(C)C)s2)cc1 [Example 1, N-(5-Isopropyl-[1,3,4]thiadiazol-2-yl)-4-[4-methyl-2-(4-trifluoromethyl-phenyl)-thiazol-5-ylmethoxy]-benzenesulfonamide]  370 nM
6. COc1ccc(-c2nc(COc3ccc(S(=O)(=O)Nc4nnc(C(C)C)s4)cc3)no2)cc1 [Example 9, N-(5-Isopropyl-[1,3,4]thiadiazol-2-yl)-4-[5-(4-methoxy-phenyl)-[1,2,4]oxadiazol-3-ylmethoxy]-benzenesulfonamide]  260 nM
